Here are results for 6 molecules from US20250312474A1, “ANTHRACYCLINS AND CONJUGATES THEREOF” (priority 2022, published 2025).

Assay [1] relates to JIMT-1 cells. As to the kind of experiment: In vitro cytotoxicity of free payloads (resazurin cell viability, 3 days). Particulars: for IC50: Homo sapiens, JIMT-1, 72 h, read-out: IC50 JIMT-1 (HER2 1+); for IC50 JIMT-1 (HER2 1+): free payload, 3 days incubation, 10 pM to 100 nM. Format: cell-based, human. As for the experimental part: (§1) SK-OV-3, NCI-N87, JIMT-1 and MDA-MB-231 cells were plated in 96-well plates (5000 cells/well) in RPMI-1640 GlutaMAX (Invitrogen) supplemented with 10% fetal bovine serum (FBS) (Invitrogen, 150 μL/well) and incubated overnight in a humidified atmosphere at 37° C. and 5% CO2. Compounds 6a, 6b, 6c, 6d and 6e were added in triplo in a square root of 10-fold dilution series to obtain a final concentration ranging from 1 pM to 10 nM (for SK-OV-3 and NCI-N87) or 10 pM to 100 nM (for JIMT-1 and MDA-MB-231) and a final volume of 200 μL/well. The cells were incubated for 3 days in a humidified atmosphere at 37° C. and 5% CO2. The culture medium was replaced by 0.01 mg/mL resazurin (Sigma Aldrich) in RPMI-1640 GlutaMAX supplemented with 10% FBS (200 μL/well). After 4 hours in a humidified atmosphere at 37° C. and 5% CO2 the fluorescence was detected with a fluorescence plate reader (Infinite® M1000 Tecan) at 560 nm excitation and 590 nm emission. The relative fluorescent units (RFU) were normalized to cell viability percentage by setting wells without cells at 0% viability and wells with untreated cells at 100% viability. Viability was plotted using Graphpad prism software (see FIG. 20).

Assay [2] relates to SK-OV-3 cells. The assay is described as above. The class given is cell-based. The settings on record: Homo sapiens, SK-OV-3, 72 h, read-out: IC50 SK-OV-3 (HER2 3+). The protocol: as §1
For assay [3], the system named is MDA-MB-231 cells. The description is as above. The class given is cell-based. The settings on record: for IC50: Homo sapiens, MDA-MB-231, 72 h, read-out: IC50 MDA-MB-231 (HER2−); for IC50 MDA-MB-231 (HER2−): free payload, 3 days incubation, 10 pM to 100 nM. The protocol:
as §1

Assay [4] deals with NCI-N87 cells. The description is as above. Format: cell-based. Particulars: Homo sapiens, NCI-N87, 72 h, read-out: IC50 NCI-N87 (HER2 3+). The protocol:
as §1, with “Compounds 6a, 6b, 6c, 6d and 6e were added in triplo in a square root of 10-fold dilution series to obtain a final concentration ranging from 1 pM to 10 nM (for SK-OV-3 and NCI-N87) or 10 pM to 100 nM (for JIMT-1 and MDA-MB-231) and a final volume of 200 μL/well.” left out

Assay [5] relates to preclinical models. Particulars: cited from earlier work.
The conditions of assay [6]: more potent than doxorubicin; cited from earlier work.
Where [7] appears, read: free payload, 3 days incubation, 1 pM to 10 nM.

Where two headings read alike, the source gives them in different places.

In the case of `COc1cccc2c1C(=O)c1c(O)c3c(c(O)c1C2=O)C[C@@](O)(C(=O)CO)C[C@@H]3O[C@H]1C[C@H]2[C@H](O[C@@H]3[C@@H](OCc4ccc(N=[N+]=[N-])cc4)OCCN32)[C@H](C)O1` [Compound 6e], the IC50 is 0.52 nM in assay [1], 0.845 nM in assay [2], 0.705 nM in assay [3] and 0.795 nM in assay [4].

As for `COc1cccc2c1C(=O)c1c(O)c3c(c(O)c1C2=O)C[C@@](O)(C(=O)CO)C[C@@H]3O[C@H]1C[C@H]2[C@H](O[C@@H]3[C@@H](OC(C)C)OCCN32)[C@H](C)O1` [Compound 6c], the IC50 in assay [1] was determined as 0.159 nM; in assay [2], 0.187 nM; in assay [3], 0.174 nM; in assay [4], 0.416 nM.

With `COc1cccc2c1C(=O)c1c(O)c3c(c(O)c1C2=O)C[C@@](O)(C(=O)CO)C[C@@H]3O[C@H]1C[C@H]2[C@H](O[C@@H]3[C@@H](OC)OCCN32)[C@H](C)O1` [PNU-159,682], the MED in assay [5] is reported as 0.033 mg/kg. Further, the “potency relative to doxorubicin” value in assay [6] is on record as more than 1000 ×.

In the case of `COc1cccc2c1C(=O)c1c(O)c3c(c(O)c1C2=O)C[C@@](O)(C(=O)CO)C[C@@H]3O[C@H]1C[C@H]2[C@H](O[C@@H]3[C@@H](OCc4ccccc4)OCCN32)[C@H](C)O1` [Compound 6d], the IC50 in assay [1] was found to be 0.259 nM; in assay [2], 0.217 nM; in assay [3], 0.169 nM; in assay [4], 0.339 nM.

Consider `COc1cccc2c1C(=O)c1c(O)c3c(c(O)c1C2=O)C[C@@](O)(C(=O)CO)C[C@@H]3O[C@H]1C[C@H]2[C@H](O[C@@H]3[C@@H](OC)OCCN32)[C@H](C)O1` [Compound 6a, reference compound], for which the “IC50 JIMT-1 (HER2 1+)” value in assay [1] is “no accurate IC50 value could be calculated”. Besides, the IC50 in assay [2] (setting [7]) worked out at 0.028 nM; in assay [4] (setting [7]), 0.085 nM. Besides, the “IC50 MDA-MB-231 (HER2−)” value in assay [3] is “no accurate IC50 value could be calculated”.

As to `COc1cccc2c1C(=O)c1c(O)c3c(c(O)c1C2=O)C[C@@](O)(C(=O)CO)C[C@@H]3O[C@H]1C[C@H]2[C@H](O[C@@H]3[C@@H](OCCN=[N+]=[N-])OCCN32)[C@H](C)O1` [Compound 6b], in assay [1], the “IC50 JIMT-1 (HER2 1+)” value is on record as “no accurate IC50 value could be calculated”. Moreover, the IC50 in assay [2] came out at 0.099 nM. Besides, the “IC50 MDA-MB-231 (HER2−)” value in assay [3] is “no accurate IC50 value could be calculated”.
